Patent publication US20250243560A1, “METAL EXTRACTANT AND SEPARATION RECOVERY METHOD OF METAL IONS USING METAL EXTRACTANT” (FUJIFILM Corporation, priority 2022, published 2025)
Like-named read-outs stand apart in the source and are kept apart here.

Columns and labels:
[1] = Separation recovery method I, water phase W1 (Co, Ni sulfates) mixed with kerosine oil phase of the metal extractant; settings: maximum amount of metal ions extracted / total amount of the other metal ions extracted, mixing amount 0.5 equivalent
Method: 95.4 g of cobalt (II) sulfate heptahydrate (manufactured by FUJIFILM Wako Pure Chemicals Corporation) and 95.7 g of nickel (II) sulfate heptahydrate (manufactured by FUJIFILM Wako Pure Chemicals Corporation) were added to a 1L measuring flask, were diluted with ultrapure water, and were stirred and dissolved at 30° C. As a result, a metal ion-containing aqueous solution (W1) including two kinds of metal ions was prepared.
(§1) 12 mL of the extractant (Y1) with respect to 10 mL of the prepared metal ion-containing aqueous solution (W1) was added to a 30 mL vial tube, and the mixture was stirred using a stirrer tip at 25° C. for 30 minutes. In this case, the mixing amount (unit: equivalent) of the metal extractant with respect to the total content of metal ions to be coordinated (that have the same definition as the extracted metal ions; in Example 1, Co and Ni) was 0.5. Next, a 10 M sodium hydroxide aqueous solution or a 10 M hydrochloric acid was added to adjust the pH of the mixed solution to a value shown in the column “pH during Mixing” of Table 1-2. Further, the solution was stirred at 25° C. for 30 minutes, and was left to stand at the same temperature for 1 hour. After verifying that the solution was separated into two layers of the organic phase (oil phase) and the water phase, the separated water phase was extracted, and the separation and recovery of the metal ions was performed. The metal ions extracted in Example 1 and the metal ions extracted in the maximum amount are shown in the column “Kind” and the column “Maximum Amount Extracted” of the column “Extracted Metal Ions” in Table 1-2, respectively.
(§2) Separation and recovery of metal ions according to Examples 2 to 4 and 8 and Comparative Examples 1 to 6 and 9 were performed using the same method as that of Example 1, except that the metal ion-containing aqueous solution and the metal extractant solution were changed to a combination shown in Table 1-1 and Table 1-2 (hereinafter, both of which are referred to as Table 1″), the pH during the mixing of the water phase and the oil phase was set to a value shown in the column “pH during Mixing” of Table 1-2, and the mixing amount (unit: equivalent) of the metal extractant with respect to the total content of metal ions to be coordinated was set to a value shown in the column “Mixing Amount” of Table 1-2 for mixing and standing. The metal ions extracted in each of Examples and the metal ions extracted in the maximum amount are shown in the column “Kind” and the column “Maximum Amount Extracted” of the column “Extracted Metal Ions” in Table 1-2, respectively.
Regarding each of the water phases used in Examples and Comparative Examples and the water phases after the extraction, the pH was measured using a pH meter (SK-620 pH II, manufactured by SATOTECH), and each of the contents of dissolved metal ions was determined using an inductively coupled plasma-optical emission spectrometer (ICP-OES) (Optima 7300 D (trade name), manufactured by Perkin Elmer Co., Ltd.). Measured values of the pH of each of the water phases used in Examples and Comparative Examples and the content of dissolved metal ions in each of the water phases are shown in the column “Water Phase pH” of Table 1-2 and the column “Metal Ion Concentration (ppm)” of Table 1-1. The maximum amount (ppm) of the metal ions extracted measured as described above was divided by the total amount (ppm) of the other metal ions extracted to calculate a ratio between the amounts thereof extracted. […]

[2] = Separation recovery method I, water phase W2 (Mn, Co, Ni sulfates) mixed with kerosine oil phase of the metal extractant; settings: for Selection Ratio: W2, maximum amount of metal ions extracted / total amount of the other metal ions extracted, mixing amount 0.4 equivalent
Method: (§3) In addition, each of sulfates of a combination of metal ions shown in Table 1-1 was dissolved in ultrapure water to prepare each of metal ion-containing aqueous solutions (W2) and (W3) including two or three kinds of metal ions.
as §1, §2
(§4) Regarding each of the water phases used in Examples and Comparative Examples and the water phases after the extraction, the pH was measured using a pH meter (SK-620 pH II, manufactured by SATOTECH), and each of the contents of dissolved metal ions was determined using an inductively coupled plasma-optical emission spectrometer (ICP-OES) (Optima 7300 D (trade name), manufactured by Perkin Elmer Co., Ltd.). Measured values of the pH of each of the water phases used in Examples and Comparative Examples and the content of dissolved metal ions in each of the water phases are shown in the column “Water Phase pH” of Table 1-2 and the column “Metal Ion Concentration (ppm)” of Table 1-1. The maximum amount (ppm) of the metal ions extracted measured as described above was divided by the total amount (ppm) of the other metal ions extracted to calculate a ratio between the amounts thereof extracted. The result is shown in the column “Selection Ratio” of Table 1-2.

[3] = Separation recovery method I, water phase W3 (Zr, Rh sulfates) mixed with kerosine oil phase of the metal extractant; settings: maximum amount of metal ions extracted / total amount of the other metal ions extracted, mixing amount 0.7 equivalent
Method: as §3
12 mL of the extractant (Y1) with respect to 10 mL of the prepared metal ion-containing aqueous solution (W1) was added to a 30 mL vial tube, and the mixture was stirred using a stirrer tip at 25° C. for 30 minutes. In this case, the mixing amount (unit: equivalent) of the metal extractant with respect to the total content of metal ions to be coordinated (that have the same definition as the extracted metal ions; in Example 1, Co and Ni) was 0.5. […]
Regarding each of the water phases used in Examples and Comparative Examples and the water phases after the extraction, the pH was measured using a pH meter (SK-620 pH II, manufactured by SATOTECH), and each of the contents of dissolved metal ions was determined using an inductively coupled plasma-optical emission spectrometer (ICP-OES) (Optima 7300 D (trade name), manufactured by Perkin Elmer Co., Ltd.). Measured values of the pH of each of the water phases used in Examples and Comparative Examples and the content of dissolved metal ions in each of the water phases are shown in the column “Water Phase pH” of Table 1-2 and the column “Metal Ion Concentration (ppm)” of Table 1-1. […]

[4] = Acid dissociation constant pKa by neutralization titration; format: physicochemical; settings: for metal extractant II pKa of a conjugate acid
Excerpt: An acid dissociation constant pKa of the metal extractant is not particularly limited, and an appropriate value for the kind, the number, and the like of the coordinating functional groups can be adopted. In the present invention, the pKa is a value measured by neutralization titration.
In the present invention, the pKa is a value measured by neutralization titration.
Regarding the synthesized or prepared metal extractant, the molecular weight and the pKa calculated using the above-described method are shown in Table 1-2.

[5] = Separation recovery method II, water phase W4 (Co, Ni sulfates with lithium chloride) mixed with kerosine oil phase of the metal extractant; settings: for Selection Ratio: W4, maximum amount of metal ions extracted / total amount of the other metal ions extracted, mixing amount 0.5 equivalent
Method: 200 g of lithium chloride (manufactured by FUJIFILM Wako Pure Chemical Corporation), 95.4 g of cobalt (II) sulfate heptahydrate (manufactured by FUJIFILM Wako Pure Chemicals Corporation), and 95.7 g of nickel (II) sulfate heptahydrate (manufactured by FUJIFILM Wako Pure Chemicals Corporation) were added to a 1L measuring flask, were diluted with ultrapure water, and were stirred and dissolved at 30° C. As a result, a metal ion-containing aqueous solution (W4) including two kinds of metal ions was prepared. In this aqueous solution, in the two kinds of metal ions (cobalt and nickel), complex ions to which halide ions were coordinated were formed.
12 mL of the extractant (Y3) with respect to 10 mL of the prepared metal ion-containing aqueous solution (W4) was added to a 30 mL vial tube, and the mixture was stirred using a stirrer tip at 25° C. for 30 minutes. In this case, the mixing amount (unit: equivalent) of the metal extractant to the total content of the metal ions was 0.5. Next, a 10 M sodium hydroxide aqueous solution or a 10 M hydrochloric acid was added to adjust the pH of the mixed solution to a value shown in the column “pH during Mixing” of Table 1-2. Further, the solution was stirred at 25° C. for 30 minutes, and was left to stand at the same temperature for 1 hour. After verifying that the solution was separated into two layers of the organic phase (oil phase) and the water phase, the separated water phase was extracted, and the separation and recovery of the metal ions was performed. The metal ions extracted in Example 5 and the metal ions extracted in the maximum amount are shown in the column “Kind” and the column “Maximum Amount Extracted” of the column “Extracted Metal Ions” in Table 1-2, respectively.
The separation and recovery of the metal ions according to Examples 6 and 7 and Comparative Examples 7 and 8 was performed using the same method as that of Example 5, except that the metal ion-containing aqueous solution and the extractant solution were changed to a combination shown in Table 1-2, and the pH during the mixing of the water phase and the oil phase was set to a value shown in the column “pH during Mixing” of Table 1 for mixing and standing. The metal ions extracted in each of Examples and the metal ions extracted in the maximum amount are shown in the column “Kind” and the column “Maximum Amount Extracted” of the column “Extracted Metal Ions” in Table 1-2, respectively.
as §4

[6] = room temperature, concentration 310 mM
Method: Each of the synthesized or prepared metal extractants was added to a 100 mL measuring flask, and was diluted using kerosine (manufactured by FUJIFILM Wako Pure Chemicals Corporation) at room temperature. As a result, metal extractant solutions (Y1) to (Y6) and (Ycl) to (Yc9) (concentration: 310 mM) including the metal extractants were prepared, respectively.

Row | pKa ([4]; read-out: pKa) | Molecule | Selection Ratio [1] | Selection Ratio [2] | Selection Ratio [5] | other results
1 | 6.1 | CCCCC(CC)CC(C(=O)O)N(CCN(CC(CC)CCCC)C(CC(CC)CCCC)C(=O)O)CC(CC)CCCC (stereo not drawn) [E-1] | 10 | 20 | – | Selection Ratio [3]: 6.7
2 | 6.3 | CCCCC(CC)CCC(C(=O)O)N(CCN(CC(CC)CCCC)C(CCC(CC)CCCC)C(=O)O)CC(CC)CCCC (stereo not drawn) [E-2] | 4.0 | – | – | –
3 | 11.1 | CCCCC(CC)CN(CCN(CC(CC)CCCC)CC(CC)CCCC)CC(CC)CCCC (stereo not drawn) [E-3] | – | – | 5.0 | –
4 | 11.4 | CCCCCCCCCN(CCCCCCCCC)CCN(CCCCCCCCC)CCCCCCCCC [E-4] | – | – | 3.3 | –
5 | 11.5 | CCCCC(CC)CN(CC(CC)CCCC)CC1CCC(CN(CC(CC)CCCC)CC(CC)CCCC)CC1 (stereo not drawn) [E-5] | – | – | 4.0 | –
6 | 6.2 | CCCCC(CC)CN(CCN(CC(CC)CCCC)C(CCCOCCOC)C(=O)O)C(CCCOCCOC)C(=O)O (stereo not drawn) [E-6] | 5.0 | – | – | –
7 | 0.9 | O=C(O)CN(CCN(CC(=O)O)CC(=O)O)CC(=O)O [EDTA, ethylenediaminetetraacetic acid] | – | – | – | extraction of metal ions to the oil phase ([2]; W2, in words): not able to be extracted; dissolution in kerosine [6]: not able to be dissolved in kerosine
8 | – | CCCCC(CC)COP(=O)(O)CC(CC)CCCC (stereo not drawn) [PC-88A, mono-2-ethylhexyl(2-Ethylhexyl)phosphonate] | – | 1.4 | – | selectivity of the Mn ions extracted in the maximum amount ([2]; W2, in words): low
9 | 6 | CCCCC(CC)CN(CC(CC)CCCC)C(=O)CN(CCN(CC(=O)O)CC(=O)N(CC(CC)CCCC)CC(CC)CCCC)CC(=O)O (stereo not drawn) [T-1] | – | 0.5 | – | selectivity of the Mn ions extracted in the maximum amount ([2]; W2, in words): low
10 | 5.2 | CCCCC(CC)CN(CC(CC)CCCC)C(=O)CNCC(=O)O (stereo not drawn) [T-2] | – | 0.6 | – | –
11 | 5.8 | CCCCC(CC)CC(OCCOC(CC(CC)CCCC)C(=O)O)C(=O)O (stereo not drawn) [T-3] | 1.1 | – | – | –
12 | 13.4 | CCCCC(CC)COCCOCC(CC)CCCC (stereo not drawn) [T-4] | – | – | 1.5 | amount of the metal ions extracted in the maximum amount ([5]; W4, in words): not sufficient
13 | 6.1 | CCCCC(CC)CC(C(=O)O)N(CCC(C)SC)CCN(CCC(C)SC)C(CC(CC)CCCC)C(=O)O (stereo not drawn) [T-5] | 1.2 | – | – | –
14 | 5.2 | CCCCC(CC)CN(CC(CC)CCCC)CC(CC)CCCC (stereo not drawn) [Tris-2-EHA, tris(2-ethylhexyl)amine] | – | – | 1.5 | –
15 | – | Versatic acid 10 [VA-10] | – | 0.7 | – | selectivity of the Mn ions extracted in the maximum amount ([2]; W2, in words): low; pKa [4]: 7.9
